Measured values reported in PMC10449848, “Structural basis of lipid-droplet localization of 17-beta-hydroxysteroid dehydrogenase 13” (Nature Communications, 2023).
Values joined by “and” are separate entries in the source; they are usually repeats but may differ in a detail not shown here. Equal values may be shown once.

Target: T1, human HSD17B11 (Homo sapiens, UniProt Q8NBQ5)
T1 construct: human HSD17B11 (residues 2-300, NP_057329.3); 10x His (N); TEV protease site (N); made in house; host or cells: Sf9 (baculovirus)
T1 sequence (Q8NBQ5 2-300): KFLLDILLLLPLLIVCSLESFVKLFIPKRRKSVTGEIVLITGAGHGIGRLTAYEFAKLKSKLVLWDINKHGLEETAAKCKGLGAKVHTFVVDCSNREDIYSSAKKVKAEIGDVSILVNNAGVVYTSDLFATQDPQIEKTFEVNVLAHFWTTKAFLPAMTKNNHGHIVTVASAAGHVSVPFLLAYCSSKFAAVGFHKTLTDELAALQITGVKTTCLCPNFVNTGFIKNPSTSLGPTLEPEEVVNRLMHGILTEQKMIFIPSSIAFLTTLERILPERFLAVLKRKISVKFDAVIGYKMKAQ
Assay: Thermal shift assay (static light scattering, Tagg), human HSD17B11
Format: binding
Conditions: Fig. 6d, 500 μM NAD+
Description: Because of the low enzymatic activities of dog wild-type HSD17B13 (Fig. 6a) and HSD17B11 with β-estradiol, it was difficult to measure compound inhibition of these proteins in a biochemical assay and we instead utilized direct binding methods to compare compounds interaction with different proteins. To understand ligand binding, we tested several approaches such as surface plasmon resonance and isothermal calorimetry. Like many membrane/detergent-associated proteins, however, these methods were not amenable for HSD17B13. We next turned to thermal shift assays (TSA) for comparing ligand binding affinities. TSA measures the changes in the thermal denaturation temperature of a protein under different conditions such as the presence compound, changes in buffer conditions, or sequence mutations. There are various readouts including intrinsic fluorescence or light scattering signals. We chose the static light scattering methods to detect the temperatures at which our proteins start to aggregate (Tagg), which are more suitable for membrane proteins that require detergent micelles for stability. Given that in theory[51] and in practice Tagg continues to increase with concentration of ligands far above their IC50s, we used high cofactor and inhibitor concentrations in the TSA experiments to maximize the ligand binding signal.
TSA studies were run on the UNit instrument (Unchained Labs, CA, USA). Experiments were run in either 25 mM sodium phosphate pH 7, 150 mM NaCl, 10% glycerol, 1 mM TCEP, 0.05% DDM, + different cofactors (NAD^+, NADH, NADP, NADPH; MilliporeSigma) or 25 mM HEPES pH 7.2, 300 mM NaCl, 0.5 mM TCEP, 0.05% DDM, 10% glycerol, ±500 µM NAD^+, and ±100 µM compound 1 (from 2 mM DMSO stock) or DMSO or 50 mM Hepes pH 7.5, 300 mM NaCl, 0.5 mM TCEP, 0.05% DDM, 500 µM NAD^+, ± 50 µM compounds (from 2 mM stock) or DMSO. Protein aggregation was measured by static light scattering at 266 and 473 nm with a 1 °C/sec ramp rate from 20-80 °C. The data was processed using the UNcle software (Unchained Labs, CA, USA), and temperatures at which the protein started aggregation were recorded as Tagg. Reported Tagg and analysis were based on measurements at 266 nm unless otherwise indicated. The protein concentration used was 10.4 μM.

With O=C(NC[C@]1(O)CC[C@H](COc2ccccc2F)CC1)c1ccc(O)c(F)c1 [Compound 1] the “effect on protein stability in TSA” value was “neither 1 nor 2 showed an effect on protein stability” and the Tagg (50 µM compound) was 37.65 °C and 35.79 °C and 38.54 °C and 39 °C and 39.99 °C and 38.79 °C and 39.64 °C and 38.95 °C.
